system: LAMPU (purple deadnettle); experiment: Pre-emergence herbicidal activity, cool season; format: in vivo, Lamium purpureum; settings: lowest tested rate with 80% or greater inhibition; rates 300, 100, 30, 10 g/ha; about 14 days
Procedure: (§1) Tables 5 to 8 summarize results of tests conducted as described below to determine the pre-emergence herbicidal activity, in the form of a GR80 value, of illustrative compounds of this invention. […] Compounds of the invention were typically applied at rates of 300, 100, 30, and 10 g/ha. Where herbicidal activity was evident but 80% inhibition was not achieved at the highest rate tested, an asterisk (*) is shown in the following tables.
(§2) The pre-emergence tests were conducted by the following procedure. Topsoil was sieved to pass through a 1.27 cm screen. Fertilizer was added to the topsoil and the mixture was then sterilized by heating. The topsoil mixture was placed in a pot and compacted to a depth of 1.0 to 1.25 cm from the top of the pot. Seeds of each of several monocotyledonous and dicotyledonous annual plant species were placed on top of the soil. Additional soil was subsequently placed over the seeds to level-fill the pot. A known amount of each test compound dissolved or suspended in an appropriate organic solvent was diluted with a 50:50 mix of acetone and water and applied to the surface of the soil. After treatment the plants were placed in a greenhouse where they received 0.64 cm of overhead irrigation. All subsequent watering consisted of a light overhead mist and/or subirrigation as needed for germination and growth. Tables 5 and 6 below relate to warm season plant species which were placed after pre-emergence treatment in a greenhouse with a 30/21° C. day/night temperature regime. Tables 7 and 8 below relates to cool season plant species placed after pre-emergence treatment in a greenhouse or growth chamber with an 18/13° C. day/night temperature regime.
(§3) Approximately 14 days after planting and treating, the plants were observed and herbicidal efficacy recorded as percent inhibition by comparison with untreated plants.
(§4) The plant species usually regarded as weeds which were utilized in the tests are identified in the tables below according to the following legend, in which “d” indicates a dicotyledonous species and “m” a monocotyledonous species. All monocotyledonous species included in the tests herein are grasses.

Row | Compound | Pre-emergence activity GR80, LAMPU
1 | O=C(N1CCOCC1)n1cnc(S(=O)(=O)C(F)(F)Br)n1 [Example 36] | 300 g/ha
2 | C=CCN(C)C(=O)n1cnc(S(=O)(=O)C(F)(F)C(F)F)n1 [Example 65] | 100 g/ha
3 | C=CCN(C)C(=O)n1cnc(S(=O)(=O)C(F)(F)Cl)n1 [Example 89] | 100 g/ha
4 | C#CCN(C)C(=O)n1cnc(S(=O)(=O)C(F)F)n1 [Example 31] | [empty]

system: GALAP (catchweed bedstraw); experiment: Pre-emergence herbicidal activity, cool season; format: in vivo, Galium aparine; settings: lowest tested rate with 80% or greater inhibition; rates 300, 100, 30, 10 g/ha; about 14 days
Procedure: as §1, §2, §3, §4

Row | Compound | Pre-emergence activity GR80, GALAP
5 | O=C(N1CCOCC1)n1cnc(S(=O)(=O)C(F)(F)Br)n1 [Example 36] | 300 g/ha
6 | C=CCN(C)C(=O)n1cnc(S(=O)(=O)C(F)(F)C(F)F)n1 [Example 65] | 30 g/ha
7 | C=CCN(C)C(=O)n1cnc(S(=O)(=O)C(F)(F)Cl)n1 [Example 89] | 300 g/ha
8 | C#CCN(C)C(=O)n1cnc(S(=O)(=O)C(F)F)n1 [Example 31] | [empty]

system: SINAR (wild mustard); experiment: Pre-emergence herbicidal activity, cool season; format: in vivo, Sinapis arvensis; settings: lowest tested rate with 80% or greater inhibition; rates 300, 100, 30, 10 g/ha; about 14 days
Procedure: as §1, §2, §3, §4

Row | Compound | Pre-emergence activity GR80, SINAR
9 | O=C(N1CCOCC1)n1cnc(S(=O)(=O)C(F)(F)Br)n1 [Example 36] | [empty]
10 | C=CCN(C)C(=O)n1cnc(S(=O)(=O)C(F)(F)C(F)F)n1 [Example 65] | 300 g/ha
11 | C=CCN(C)C(=O)n1cnc(S(=O)(=O)C(F)(F)Cl)n1 [Example 89] | 300 g/ha
12 | C#CCN(C)C(=O)n1cnc(S(=O)(=O)C(F)F)n1 [Example 31] | [empty]

system: CHEAL (common lambsquarters); experiment: Pre-emergence herbicidal activity, warm season; format: in vivo, Chenopodium album; settings: GR80 = lowest tested rate (300, 100, 30, 10 g/ha) with 80% or greater inhibition; approx. 14 days after treating; 30/21° C.
Procedure: as §1, §2, §3, §4

Row | Compound | Pre-emergence activity (GR80) CHEAL [g/ha]
13 | O=C(N1CCOCC1)n1cnc(S(=O)(=O)C(F)(F)Br)n1 [Example 36] | 300
14 | C=CCN(C)C(=O)n1cnc(S(=O)(=O)C(F)(F)C(F)F)n1 [Example 65] | 300

system: VERPE (creeping speedwell); experiment: Pre-emergence herbicidal activity, cool season; format: in vivo, Veronica persicaria; settings: lowest tested rate with 80% or greater inhibition; rates 300, 100, 30, 10 g/ha; about 14 days
Procedure: as §1, §2, §3, §4

Row | Compound | Pre-emergence activity GR80, VERPE
15 | O=C(N1CCOCC1)n1cnc(S(=O)(=O)C(F)(F)Br)n1 [Example 36] | [empty]
16 | C=CCN(C)C(=O)n1cnc(S(=O)(=O)C(F)(F)C(F)F)n1 [Example 65] | 100 g/ha
17 | C=CCN(C)C(=O)n1cnc(S(=O)(=O)C(F)(F)Cl)n1 [Example 89] | [empty]
18 | C#CCN(C)C(=O)n1cnc(S(=O)(=O)C(F)F)n1 [Example 31] | [empty]

system: POROL (common purslane); experiment: Pre-emergence herbicidal activity, warm season; format: in vivo, Portulaca oleracea; settings: GR80 = lowest tested rate (300, 100, 30, 10 g/ha) with 80% or greater inhibition; approx. 14 days after treating; 30/21° C.
Procedure: as §1, §2, §3, §4

Row | Compound | Pre-emergence activity (GR80) POROL [g/ha]
19 | C=CCN(C)C(=O)n1cnc(S(=O)(=O)C(F)(F)Cl)n1 [Example 89] | 100

system: STEME (common chickweed); experiment: Pre-emergence herbicidal activity, cool season; format: in vivo, Stellaria media; settings: lowest tested rate with 80% or greater inhibition; rates 300, 100, 30, 10 g/ha; about 14 days
Procedure: as §1, §2, §3, §4

Row | Compound | Pre-emergence activity GR80, STEME
20 | O=C(N1CCOCC1)n1cnc(S(=O)(=O)C(F)(F)Br)n1 [Example 36] | [empty]
21 | C=CCN(C)C(=O)n1cnc(S(=O)(=O)C(F)(F)C(F)F)n1 [Example 65] | 300 g/ha
22 | C=CCN(C)C(=O)n1cnc(S(=O)(=O)C(F)(F)Cl)n1 [Example 89] | 100 g/ha
23 | C#CCN(C)C(=O)n1cnc(S(=O)(=O)C(F)F)n1 [Example 31] | [empty]

system: PANMI (wild proso millet); experiment: Pre-emergence herbicidal activity, warm season; format: in vivo, Panicum miliaceum; settings: GR80 = lowest tested rate (300, 100, 30, 10 g/ha) with 80% or greater inhibition; approx. 14 days after treating; 30/21° C.
Procedure: as §1, §2, §3, §4

Row | Compound | Pre-emergence activity (GR80) PANMI [g/ha]
24 | C=CCN(C)C(=O)n1cnc(S(=O)(=O)C(F)(F)C(F)F)n1 [Example 65] | 300
25 | C=CCN(C)C(=O)n1cnc(S(=O)(=O)C(F)(F)Cl)n1 [Example 89] | 300

system: DIGSA (large crabgrass); experiment: Pre-emergence herbicidal activity, warm season; format: in vivo, Digitaria sanguinalis; settings: GR80 = lowest tested rate (300, 100, 30, 10 g/ha) with 80% or greater inhibition; approx. 14 days after treating; 30/21° C.
Procedure: as §1, §2, §3, §4

Row | Compound | Pre-emergence activity (GR80) DIGSA [g/ha]
26 | C=CCN(C)C(=O)n1cnc(S(=O)(=O)C(F)(F)Cl)n1 [Example 89] | 100
27 | C#CCN(C)C(=O)n1cnc(S(=O)(=O)C(F)F)n1 [Example 31] | 300

system: SASKR (russian thistle); experiment: Pre-emergence herbicidal activity, cool season; format: in vivo, Salsola kali; settings: lowest tested rate with 80% or greater inhibition; rates 300, 100, 30, 10 g/ha; about 14 days
Procedure: as §1, §2, §3, §4

Row | Compound | Pre-emergence activity GR80, SASKR
28 | O=C(N1CCOCC1)n1cnc(S(=O)(=O)C(F)(F)Br)n1 [Example 36] | [empty]
29 | C=CCN(C)C(=O)n1cnc(S(=O)(=O)C(F)(F)C(F)F)n1 [Example 65] | [empty]
30 | C=CCN(C)C(=O)n1cnc(S(=O)(=O)C(F)(F)Cl)n1 [Example 89] | 300 g/ha
31 | C#CCN(C)C(=O)n1cnc(S(=O)(=O)C(F)F)n1 [Example 31] | [empty]

system: ALOMY (blackgrass); experiment: Pre-emergence herbicidal activity, cool season; format: in vivo, Alopecurus myosuroides; settings: GR80 = lowest tested rate (300, 100, 30, 10 g/ha) with 80% or greater inhibition; approx. 14 days after treating; 18/13° C.
Procedure: as §1, §2, §3, §4

Row | Compound | Pre-emergence activity (GR80) ALOMY [g/ha]
32 | C=CCN(C)C(=O)n1cnc(S(=O)(=O)C(F)(F)C(F)F)n1 [Example 65] | 100

system: SETVI (green foxtail); experiment: Pre-emergence herbicidal activity, cool season; format: in vivo, Setaria viridis; settings: GR80 = lowest tested rate (300, 100, 30, 10 g/ha) with 80% or greater inhibition; approx. 14 days after treating; 18/13° C.
Procedure: as §1, §2, §3, §4

Row | Compound | Pre-emergence activity (GR80) SETVI [g/ha]
33 | C=CCN(C)C(=O)n1cnc(S(=O)(=O)C(F)(F)C(F)F)n1 [Example 65] | 100
34 | C=CCN(C)C(=O)n1cnc(S(=O)(=O)C(F)(F)Cl)n1 [Example 89] | 100

system: AGSST (creeping bentgrass); experiment: Pre-emergence herbicidal activity, cool season; format: in vivo, Agrostis stolonifera; settings: GR80 = lowest tested rate (300, 100, 30, 10 g/ha) with 80% or greater inhibition; approx. 14 days after treating; 18/13° C.
Procedure: as §1, §2, §3, §4

Row | Compound | Pre-emergence activity (GR80) AGSST [g/ha]
35 | C=CCN(C)C(=O)n1cnc(S(=O)(=O)C(F)(F)C(F)F)n1 [Example 65] | 300
36 | C=CCN(C)C(=O)n1cnc(S(=O)(=O)C(F)(F)Cl)n1 [Example 89] | 100

system: POLCO (wild buckwheat); experiment: Pre-emergence herbicidal activity, cool season; format: in vivo, Polygonum convolvulus; settings: lowest tested rate with 80% or greater inhibition; rates 300, 100, 30, 10 g/ha; about 14 days
Procedure: as §1, §2, §3, §4

Row | Compound | Pre-emergence activity GR80, POLCO
37 | O=C(N1CCOCC1)n1cnc(S(=O)(=O)C(F)(F)Br)n1 [Example 36] | [empty]
38 | C=CCN(C)C(=O)n1cnc(S(=O)(=O)C(F)(F)C(F)F)n1 [Example 65] | 100 g/ha
39 | C=CCN(C)C(=O)n1cnc(S(=O)(=O)C(F)(F)Cl)n1 [Example 89] | 100 g/ha
40 | C#CCN(C)C(=O)n1cnc(S(=O)(=O)C(F)F)n1 [Example 31] | [empty]

— patent US6461997B1, “Triazole sulfones having herbicidal activity” (Monsanto Technology LLC, priority 1999, dated 2002)
